Assay results reported in PubChem BioAssay AID463149 (The Scripps Research Institute Molecular Screening Center, 2010).

Assays:
Assay in all cases: PME-1 inhibitors in HeLa proteome, late-stage follow-up, selectivity assay, cell lysate, gel-based competitive ABPP, fluorescence, powder samples (AID 463149)
[1] = biological target: Acylamino-acid-releasing enzyme (Homo sapiens) (UniProt P13798); settings: HeLa soluble proteome, FP-Rh fluorescence, measured here: Anti-Target APEH, stronger effect = higher value
Sequence of Acylamino-acid-releasing enzyme (Homo sapiens) (P13798 whole entry, looked up): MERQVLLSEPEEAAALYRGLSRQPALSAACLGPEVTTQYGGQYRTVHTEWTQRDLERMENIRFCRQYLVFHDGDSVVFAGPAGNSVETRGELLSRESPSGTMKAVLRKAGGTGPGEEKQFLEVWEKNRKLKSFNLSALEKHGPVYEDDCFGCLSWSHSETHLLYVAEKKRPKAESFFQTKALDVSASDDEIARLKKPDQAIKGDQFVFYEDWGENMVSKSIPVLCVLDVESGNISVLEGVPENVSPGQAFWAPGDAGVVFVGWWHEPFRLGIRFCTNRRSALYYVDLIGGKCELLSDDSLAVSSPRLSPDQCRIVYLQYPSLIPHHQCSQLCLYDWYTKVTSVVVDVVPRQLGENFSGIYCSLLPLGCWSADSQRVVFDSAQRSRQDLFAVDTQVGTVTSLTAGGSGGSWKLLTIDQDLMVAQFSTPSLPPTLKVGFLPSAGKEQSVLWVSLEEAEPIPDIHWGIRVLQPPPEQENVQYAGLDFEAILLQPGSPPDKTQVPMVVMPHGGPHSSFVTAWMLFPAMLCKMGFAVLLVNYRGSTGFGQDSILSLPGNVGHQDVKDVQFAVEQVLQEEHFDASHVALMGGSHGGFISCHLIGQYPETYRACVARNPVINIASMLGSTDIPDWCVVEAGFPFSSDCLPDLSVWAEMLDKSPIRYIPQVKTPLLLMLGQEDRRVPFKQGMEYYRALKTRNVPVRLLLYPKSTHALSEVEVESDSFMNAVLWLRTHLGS

[2] = system: Anti-Target ABHD10; settings: HeLa soluble proteome, FP-Rh fluorescence, stronger effect = higher value
[3] = system: Anti-Target CES; settings: HeLa soluble proteome, FP-Rh fluorescence, measured here: Anti-Target CES, stronger effect = higher value
[4] = system: Anti-Target PREP; settings: HeLa soluble proteome, FP-Rh fluorescence, measured here: Anti-Target PREP, stronger effect = higher value
[5] = biological target: Fatty acid synthase (Homo sapiens) (UniProt P49327); settings: HeLa soluble proteome, FP-Rh fluorescence, measured here: Anti-Target FAS, stronger effect = higher value
Sequence of Fatty acid synthase (Homo sapiens) (P49327 whole entry, looked up): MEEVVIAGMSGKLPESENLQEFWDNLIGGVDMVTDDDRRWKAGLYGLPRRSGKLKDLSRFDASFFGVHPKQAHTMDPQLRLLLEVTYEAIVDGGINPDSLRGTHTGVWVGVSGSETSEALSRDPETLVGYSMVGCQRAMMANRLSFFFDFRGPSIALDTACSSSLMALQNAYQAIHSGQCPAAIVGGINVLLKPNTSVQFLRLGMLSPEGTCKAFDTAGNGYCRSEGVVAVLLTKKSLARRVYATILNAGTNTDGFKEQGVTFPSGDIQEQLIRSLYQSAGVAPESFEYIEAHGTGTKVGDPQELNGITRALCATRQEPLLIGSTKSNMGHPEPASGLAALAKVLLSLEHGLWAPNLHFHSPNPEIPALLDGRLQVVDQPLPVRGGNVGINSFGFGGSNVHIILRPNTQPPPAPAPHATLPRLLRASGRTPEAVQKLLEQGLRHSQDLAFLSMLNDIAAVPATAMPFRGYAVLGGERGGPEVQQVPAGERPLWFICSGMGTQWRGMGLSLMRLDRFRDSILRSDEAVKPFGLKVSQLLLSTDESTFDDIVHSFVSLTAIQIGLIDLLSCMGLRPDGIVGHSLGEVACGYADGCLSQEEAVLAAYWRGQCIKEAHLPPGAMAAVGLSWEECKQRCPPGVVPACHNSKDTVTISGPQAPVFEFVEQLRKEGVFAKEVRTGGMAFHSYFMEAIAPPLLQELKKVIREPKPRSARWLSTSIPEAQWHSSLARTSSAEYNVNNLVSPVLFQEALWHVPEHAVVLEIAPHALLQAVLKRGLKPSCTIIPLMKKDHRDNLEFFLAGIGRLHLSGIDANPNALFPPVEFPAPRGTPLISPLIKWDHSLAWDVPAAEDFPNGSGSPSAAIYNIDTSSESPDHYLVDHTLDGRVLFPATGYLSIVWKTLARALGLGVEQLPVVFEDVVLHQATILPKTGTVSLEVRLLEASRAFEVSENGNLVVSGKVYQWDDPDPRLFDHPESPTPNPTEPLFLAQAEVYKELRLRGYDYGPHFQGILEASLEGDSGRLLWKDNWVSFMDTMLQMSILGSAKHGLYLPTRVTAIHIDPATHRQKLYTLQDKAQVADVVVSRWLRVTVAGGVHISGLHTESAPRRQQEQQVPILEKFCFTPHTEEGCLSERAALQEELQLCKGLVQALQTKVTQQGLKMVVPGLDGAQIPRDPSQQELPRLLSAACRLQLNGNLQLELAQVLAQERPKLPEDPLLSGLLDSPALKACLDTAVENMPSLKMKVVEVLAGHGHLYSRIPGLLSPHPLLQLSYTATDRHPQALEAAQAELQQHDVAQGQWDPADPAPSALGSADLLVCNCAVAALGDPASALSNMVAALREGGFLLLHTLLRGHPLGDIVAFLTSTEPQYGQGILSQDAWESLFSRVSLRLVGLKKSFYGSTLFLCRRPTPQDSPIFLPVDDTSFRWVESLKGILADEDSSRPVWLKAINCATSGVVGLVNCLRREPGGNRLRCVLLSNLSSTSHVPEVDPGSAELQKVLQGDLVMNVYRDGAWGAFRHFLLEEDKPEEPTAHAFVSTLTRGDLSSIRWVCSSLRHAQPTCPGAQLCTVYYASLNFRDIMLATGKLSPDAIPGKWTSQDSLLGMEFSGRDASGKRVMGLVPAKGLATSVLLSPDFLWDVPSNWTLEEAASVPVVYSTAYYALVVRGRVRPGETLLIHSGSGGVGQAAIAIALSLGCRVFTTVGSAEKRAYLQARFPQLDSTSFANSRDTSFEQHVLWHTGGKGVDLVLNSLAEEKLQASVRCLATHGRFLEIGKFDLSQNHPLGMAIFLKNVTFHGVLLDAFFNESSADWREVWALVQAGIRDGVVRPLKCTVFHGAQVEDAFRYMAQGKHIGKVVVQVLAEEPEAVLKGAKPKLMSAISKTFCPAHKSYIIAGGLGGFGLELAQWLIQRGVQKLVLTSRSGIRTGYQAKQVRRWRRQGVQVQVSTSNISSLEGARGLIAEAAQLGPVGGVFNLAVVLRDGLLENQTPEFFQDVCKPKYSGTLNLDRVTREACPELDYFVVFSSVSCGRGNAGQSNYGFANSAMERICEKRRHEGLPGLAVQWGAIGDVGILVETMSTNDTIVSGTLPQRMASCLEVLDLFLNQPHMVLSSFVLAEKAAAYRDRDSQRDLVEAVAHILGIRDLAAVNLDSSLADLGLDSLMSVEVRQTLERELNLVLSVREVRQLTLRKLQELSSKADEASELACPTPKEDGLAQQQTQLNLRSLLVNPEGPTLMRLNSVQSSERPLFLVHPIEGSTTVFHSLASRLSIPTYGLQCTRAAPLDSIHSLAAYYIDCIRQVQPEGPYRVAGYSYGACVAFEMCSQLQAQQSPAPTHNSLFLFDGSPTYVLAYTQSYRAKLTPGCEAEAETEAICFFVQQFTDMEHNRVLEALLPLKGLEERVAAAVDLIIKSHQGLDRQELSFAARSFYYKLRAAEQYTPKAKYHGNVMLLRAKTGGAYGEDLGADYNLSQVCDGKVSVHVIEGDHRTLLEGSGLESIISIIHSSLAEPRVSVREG

[6] = biological target: Protein phosphatase methylesterase 1 (Homo sapiens) (UniProt Q9Y570); settings: HeLa soluble proteome, FP-Rh fluorescence, PME-1, inhibition, stronger effect = higher value
Sequence of Protein phosphatase methylesterase 1 (Homo sapiens) (Q9Y570 whole entry, looked up): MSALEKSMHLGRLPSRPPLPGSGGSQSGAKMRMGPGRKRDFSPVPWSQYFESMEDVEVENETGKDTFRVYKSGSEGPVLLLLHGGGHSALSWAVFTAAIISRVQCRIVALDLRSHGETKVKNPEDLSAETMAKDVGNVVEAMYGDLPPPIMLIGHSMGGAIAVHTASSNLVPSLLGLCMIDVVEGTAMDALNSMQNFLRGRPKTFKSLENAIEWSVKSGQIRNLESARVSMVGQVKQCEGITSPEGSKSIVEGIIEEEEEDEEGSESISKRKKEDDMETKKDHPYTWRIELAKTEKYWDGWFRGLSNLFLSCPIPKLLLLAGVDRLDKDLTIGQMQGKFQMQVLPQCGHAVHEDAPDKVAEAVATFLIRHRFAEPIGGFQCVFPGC

[7] = measured here: Anti-Target ABHD10, at 1 µM
[8] = measured here: Anti-Target ABHD10, at 20 µM

Measured: inhibition

COC(=O)N1C(=O)[C@](Cc2ccccc2)(c2ccccc2)N1C(=O)OC
100%: [6]; at 20 µM
0%: [1]; at 1 µM | [2]; [7] | [2]; [8] | [4]; at 1 µM | [4]; at 20 µM | [5]; at 1 µM
75%: [6]; at 1 µM
> 50%: [1]; at 20 µM | [3]; at 1 µM | [3]; at 20 µM | [5]; at 20 µM

CCOC(=O)N1C(=O)[C@@](c2ccc(Cl)cc2)(C(C)C)N1C(=O)OCC
0%: [1]; at 1 µM | [1]; at 20 µM | [2]; [7] | [2]; [8] | [3]; at 1 µM | [3]; at 20 µM | [4]; at 1 µM | [4]; at 20 µM | [5]; at 1 µM | [5]; at 20 µM | [6]; at 1 µM | [6]; at 20 µM

COC(=O)N1C(=O)[C@](c2ccccc2)(C(C)C)N1C(=O)OC
0%: [1]; at 1 µM | [1]; at 20 µM | [2]; [7] | [2]; [8] | [3]; at 1 µM | [3]; at 20 µM | [4]; at 1 µM | [4]; at 20 µM | [5]; at 1 µM | [5]; at 20 µM
100%: [6]; at 1 µM | [6]; at 20 µM

COC(=O)N1C(=O)[C@@](c2ccc(OC)cc2)(C(C)C)N1C(=O)OC
50%: [6]; at 20 µM
0%: [1]; at 1 µM | [1]; at 20 µM | [2]; [7] | [2]; [8] | [3]; at 1 µM | [4]; at 1 µM | [4]; at 20 µM | [5]; at 1 µM | [5]; at 20 µM | [6]; at 1 µM
> 50%: [3]; at 20 µM

COC(=O)N1C(=O)[C@@](c2ccccc2)(C2CCCCC2)N1C(=O)OC
0%: [1]; at 1 µM | [1]; at 20 µM | [2]; [7] | [2]; [8] | [3]; at 1 µM | [3]; at 20 µM | [4]; at 1 µM | [4]; at 20 µM | [5]; at 1 µM | [5]; at 20 µM
100%: [6]; at 1 µM | [6]; at 20 µM
